Patent US20230278969A1, “CERTAIN (2S)-N-[(1S)-1-CYANO-2-PHENYLETHYL]-1,4-OXAZEPANE-2-CARBOXAMIDES AS DIPEPTIDYL PEPTIDASE 1 INHIBITORS” (AstraZeneca AB, priority 2014, published 2023)

Tests used:
[1] = target: recombinant human (RH) DPP1 (Homo sapiens (Human), UniProt P53634); assay: Test A1: Fluorescence Assay for Recombinant Human (RH) DPP1; type: biochemical; details: Test A1 (Examples 1-35); rhDPP1 ~50 pM, 100 µM H-Gly-Arg-AMC, 22° C.
Procedure: Test A1: Fluorescence Assay for Recombinant Human (RH) DPP1
The activity of DPP1 was determined by measuring the enzymatic release of aminomethyl coumarin (AMC) from the peptide substrate (H-Gly-Arg-AMC), which leads to an increase in fluorescence intensity at λex =350 nm and λem =450 nm. The assay was carried out in black 384 well plates in a final volume of 50 µl at 22° C. The assay conditions contained the following: 25 mM piperazine buffer pH 5.0; 50 mM NaCl, 5 mM DTT; 0.01% (v/v) Triton X-100; 100 µMH-Gly-Arg-AMC and rhDPP1 (~50 pM). […] Routinely, inhibitors were pre-incubated with rhDPP1 for 30-60 min prior to the addition of the peptide substrate to start the reaction for a further 60 min at 22° C.

[2] = Test B: In-vitro Competitive Aortic Tissue Binding Assay; set-up: species or system Han Wistar rats; details: 100 µM compound, competition with [14C]-labelled WO2010/128324 Ex. 3, categories strong binder, medium binder, no binder
Procedure: To assist the design of DPP1 inhibitors with a decreased risk of binding to elastin rich tissues, such as the aorta, the in-vitro competitive aortic binding assay disclosed below (Test B) was developed to facilitate the selection process.
Test B: In-vitro Competitive Aortic Tissue Binding Assay
Aortic homogenate was prepared from the thoracic aortae of Han Wistar rats. Freshly isolated thoracic aortae were frozen, and later thawed and stripped of non-elastic material. […] Homogenate concentration was adjusted to 30 mg/mL in Puck’s saline, and aliquots were stored at -80° C. until use. Positive and negative control compounds and test compounds were made up to 100 mM in DMSO, and added to 1 mL aliquots of aortic homogenate in Puck’s saline for a final concentration of 100 µM. Homogenate samples were pre-incubated with test compounds at 37° C., rotating, overnight. [^14C]4-Amino-N-[(1S)-1-cyano-2-(4′-cyanobiphenyl-4-yl)ethyl]tetrahydro-2H-pyran-4-carboxamide was then added to all samples to a final concentration of 100 µM, and samples were incubated at 37° C., rotating, for a further 2 h. Protein was precipitated from each sample by the addition of 10 mL acetone, prechilled to -20° C. Samples were left overnight at -20° C. to allow complete precipitation. […] Precipitate was washed by resuspension in 10 mL 80% methanol in distilled water, and re-pelleted by centrifugation at 4,500 × g at 4° C. for 20 min. […] After final wash, precipitate was air-dried, and dissolved overnight in 1 mL NCSII Tissue Solubiliser. 1 mL aliquots of supernatants were added to 5 mL Ultima Gold scintillation fluid (Perkin Elmer, MA, U.S.A.), and 1 mL solubilised pellets were added to 5 mL Hionic-Fluor scintillation fluid (Perkin Elmer, MA, U.S.A.). Radioactivity of samples was determined on a Beckman LS6500 multipurpose scintillation counter (Beckman Coulter, IN, U.S.A.). […] Duplicate samples were tested for each compound on each experimental occasion, and at least two experiments were run for each test compound. […] 1-way ANOVA and Bonferroni’s multiple comparison tests were performed to calculate significance of differences from vehicle control.

[3] = rat quantitative whole-body autoradiography (QWBA) studies; type: in vivo
[4] = QWBA studies, literature (Schmidt et al. 1984); cited from earlier work

Sequence of recombinant human (RH) DPP1 (P53634 231-394): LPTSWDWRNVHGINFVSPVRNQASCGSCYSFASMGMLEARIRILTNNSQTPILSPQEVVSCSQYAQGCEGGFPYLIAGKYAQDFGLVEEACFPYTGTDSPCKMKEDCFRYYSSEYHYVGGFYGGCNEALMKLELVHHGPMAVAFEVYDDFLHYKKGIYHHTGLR
Sequence of recombinant human (RH) DPP1 (P53634 25-143): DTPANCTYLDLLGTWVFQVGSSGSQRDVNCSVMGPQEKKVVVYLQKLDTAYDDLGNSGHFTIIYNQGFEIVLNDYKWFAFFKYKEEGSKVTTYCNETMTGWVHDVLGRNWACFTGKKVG
Sequence of recombinant human (RH) DPP1 (P53634 395-463): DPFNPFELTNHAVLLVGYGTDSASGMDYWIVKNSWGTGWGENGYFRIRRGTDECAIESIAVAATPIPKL

| SMILES | DPP1 activity, pIC50 [1] | Aortic Tissue Binding [2] | further results |
| --- | --- | --- | --- |
| N#Cc1ccc(-c2ccc(C[C@@H](C#N)NC(=O)[C@@H]3CNCCCO3)cc2)cc1 [Example 1, (2S)-N-[(1S)-1-Cyano-2-(4′-cyanobiphenyl-4-yl)ethyl]-1,4-oxazepane-2-carboxamide] | 7.45 | – | – |
| Cn1c(=O)oc2ccc(-c3ccc(C[C@@H](C#N)NC(=O)[C@@H]4CNCCCO4)cc3)cc21 [Example 2, (2S)-N-{(1S)-1-cyano-2-[4-(3-methyl-2-oxo-2,3-dihydro-1,3-benzoxazol-5-yl)phenyl]ethyl}-1,4-oxazepane-2-carboxamide] | – | No binder | – |
| Cc1cc(-c2ccc(C[C@@H](C#N)NC(=O)[C@@H]3CNCCCO3)cc2)cc2c1oc(=O)n2C [Example 3, (2S)-N-{(1S)-1-Cyano-2-[4-(3,7-dimethyl-2-oxo-2,3-dihydro-1,3-benzoxazol-5-yl)phenyl]ethyl}-1,4-oxazepane-2-carboxamide] | 7.99 | – | – |
| CS(=O)(=O)Oc1cccc(-c2ccc(C[C@@H](C#N)NC(=O)[C@@H]3CNCCCO3)cc2)c1 [Example 4, 4′-[(2S)-2-Cyano-2-{[(2S)-1,4-oxazepan-2-ylcarbonyl] Amino}ethyl] Biphenyl-3-yl methanesulfonate] | 7.1 | – | – |
| CC(c1ccc(Cl)c(Cl)c1)N1N=C(N)CC1=O (stereo not shown) [muzolimine] | – | – | retention in the aorta [4]: retained selectively in the aorta |

The next lines start with results.

| DPP1 activity, pIC50 [1] | Aortic Tissue Binding [2] | SMILES | further results |
| --- | --- | --- | --- |
| – | Binder | N#Cc1ccc(-c2ccc(C[C@@H](C#N)NC(=O)[C@@H]3CCCCN3)cc2)cc1 [WO2009/074829 (Example 24)] | – |
| – | Medium binder | Cn1c(=O)oc2ccc(-c3ccc(C[C@@H](C#N)NC(=O)[C@@H]4CCCCN4)cc3)cc21 [WO2009/074829 (Example 96)] | – |
| – | Strong binder (reference) | N#Cc1ccc(-c2ccc(C[C@@H](C#N)NC(=O)C3(N)CCOCC3)cc2)cc1 [WO2010/128324 (Ex. 3), 4-amino-N-[(1S)-1-cyano-2-(4′-cyanobiphenyl-4-yl)ethyl]tetrahydro-2H-pyran-4-carboxamide] | aortic retention [3]: high level of aortic retention |
| – | Strong binder | Cn1c(=O)oc2ccc(-c3ccc(C[C@@H](C#N)NC(=O)C4(N)CCOCC4)cc3)cc21 [WO2010/128324 (Example 17)] | – |
